Results on one compound are retold here after patent publication US20260027073A1, “USE OF SMALL-MOLECULE COMPOUND HAVING NAPHTHYLAMINE STRUCTURE” (HANGZHOU PHECDAMED CO., LTD., priority 2023, published 2026).

Assay [1] concerns LPS-induced acute lung injury mice. Description: LPS-induced acute lung injury. Type of assay: in vivo, C57BL/6J mice. The procedure:
Male mice C57BL/6J aged 6-8 weeks and weighing 18-22 g were selected for the study. After fixing the mice, 50 μl of PBS was injected into the airways of the mice under direct laryngoscopic vision to form a control group, and 5 mg/kg of LPS (E.coil) was dissolved in 50 μl of PBS and dripped to form a model group. The experiments were divided into […], each having 6 mice, namely, NS group (control group, airway drip of 50 μl PBS), LPS group (model control group, airway drip of 50 μl LPS), LPS+10 mg/kg group (airway drip of 50 μl LPS and given 10 mg/kg TJ01-013 treatment), LPS+20 mg/kg group (airway drip of 50 μl LPS and given 20 mg/kg TJ01-013 treatment), LPS+30 mg/kg group (airway drip of 50 μl LPS and given 30 mg/kg TJ01-013 treatment), LPS+Sivelestat group (Positive control group, airway drip of 50 μl LPS and given 5 mg/kg Sivelestat treatment). All groups were administered […] by intraperitoneal injection in a volume of 200 μl 1 h and 7 h after airway drip, and the mice were euthanized 24 h later, bronchoalveolar lavage fluid (BALF) was taken, and the levels of inflammatory factors in the bronchoalveolar lavage fluid were detected and the changes in the transcriptional levels of tissue-associated inflammatory factors were observed. • (2) taking and observing of Bronchoalveolar lavage fluid (BALF)
Use chloral hydrate intraperitoneal injection to make mice die of rapid overdose anesthesia, place mice in supine position on the dissection table, fix the limbs, disinfect the skin of the neck of the mice with 75% ethanol, incise the skin along the midline of the neck, bluntly separate the subcutaneous connective tissues and muscles with hemostatic forceps, expose the trachea, separate connective tissues on both sides of the trachea and between the trachea and the esophagus, and free the trachea. Two surgical sutures about 20 cm long were threaded between the trachea and esophagus. A 24G intravenous cannula needle was inserted at a 30-degree angle from the connective tissue membrane between the thyroid cartilage and the cricoid cartilage, and the intravenous cannula needle was delivered in the direction of the tracheal eminence. A surgical suture placed between the tracheo-esophageal was ligated at the entry of the cannula into the trachea and at the distal end of the cannula, respectively, and tied as tightly as possible to secure the cannula and trachea. 0.8 ml of PBS was aspirated with a 1 ml syringe, and the syringe was connected to the inlet end of the intravenous cannula needle, and PBS was slowly injected into the trachea, stayed for 30 seconds and then was withdrawn back, and a milky white frothy liquid withdrawn back was visible, and the lavage was repeated three times, and the liquid was centrifuged at 1500 rpm/min for 10 min, and the supernatant was used for cytokine assay, and the cell precipitates were coated after resuspending with PBS for Giemsa staining and sorting and counting.
The levels of inflammatory factors (inflammatory factors including IL-6, CXCL1, CXCL2, etc.) in BALF supernatant were detected according to the instructions of the ELISA test kit.
The obtained cDNA was amplified on a 96-well PCR plate using a LightCycler 480 system, and the gene level was determined by using glyceraldehyde 3-phosphate dehydrogenase (GAPDH) as an internal standard.

Assay [2] deals with mouse bone marrow mesenchymal stem cells. As to the kind of experiment: Senescence of mouse bone marrow mesenchymal stem cells by passaging. The assay is classed as cell-based. To be noted: 10 μM. How it is done:
Extraction of bone marrow mesenchymal stem cells: C57 mice weighing about 25 g were selected, and after anesthesia with 30 mg/kg chloral hydrate, the femur and tibia were removed and put into a Petri dish, one end of the femur and tibia were cut off to fully expose the bone marrow cavity, and a 1 ml syringe was used to extract the DMEM/F12 medium, and the tip of the needle was pricked into the bone marrow cavity to rinse the bone marrow, and a 15 ml centrifuge tube was connected underneath to make the rinsed liquid flow into the centrifuge tube, and the rinsing was repeated several times until the bone marrow cavity was rinsed clean. The rinsed suspension was blown repeatedly with a pipette to make the cells in the rinsed liquid as single-cell as possible, and the supernatant was transferred to another tube after standing still for a few minutes, and the cell suspension was continued to blow to make the cells well dispersed. The obtained cell suspension was centrifuged at 1000 rpm for 5 min, and after removing the residual supernatant, 1 ml of DMEM/F12 medium was added, and after repeated blowing, the CD45-Sca-1+PDGFRα+high-purity primary mouse bMSC cell line was sorted out by flow cytometric sorting, and the sorted cells were dispensed into culture flasks. The cells were observed under the microscope and placed in the incubator at 37° C., 5% CO2 to incubate, and the solution was replaced for 72 h, the drug administration treatment was performed at the first passaging, and then 10 μM TJ01-013 was given to each passaging thereafter, labeled as Con-Y at the 2nd generation, and labeled as Con-O at the 9th generation, and the drug administration treatment groups were given until the 9th generation, and all the cells were placed under the microscope for observing the morphology of the cells, and the proportion of the SA-β-gal+ cells was counted. The levels of the DNA damage marker γ-H2AX and the heterochromatin modification H3K9me3 after TJ01-013 treatment were detected by immunofluorescence technique (procedure described previously).

[3] abbreviates: TJ01-013 10, 20, 30 mg/kg, Sivelestat 5 mg/kg, FIG. 26.
The mark [4] stands for this setting: concentration-dependent for TJ01-013, FIG. 27.

In the case of `O=C(O)C[S+]([O-])c1cc(NS(=O)(=O)c2ccc(Br)cc2)c2ccccc2c1O` (stereo not shown) [I-1], in assay [1] (FIG. 25), the “number of macrophages in alveolar lavage fluid” value is “no significant effect” and the “number of neutrophils in alveolar lavage fluid” value was “significantly reduce”. Also, the “total number of cells in alveolar lavage fluid, compared with positive control Sivelestat sodium” value in assay [1] (TJ01-013 20 mg/kg, FIG. 25) is “decreased to a better extent”. In assay [1] (setting [3]), the “CXCL1 level in alveolar lavage fluid (ELISA)” value is “significantly decreased in a concentration-dependent manner”, the “CXCL2 level in alveolar lavage fluid (ELISA)” value is given as “significantly decreased in a concentration-dependent manner” and the “IL-6 level in alveolar lavage fluid (ELISA)” value is on record as “significantly decreased in a concentration-dependent manner”. Further, the “total number of cells in alveolar lavage fluid” value in assay [1] (after LPS, intraperitoneal TJ01-013, FIG. 25) is on record as “decreased”. Moreover, in assay [1] (setting [4]), the “CXCL1 transcript level in lung tissue” value was “significantly decreased”, the “CXCL2 transcript level in lung tissue” value is listed as “significantly decreased” and the “IL-6 transcript level in lung tissue” value is “significantly decreased”. Besides, in assay [2] (9th generation, vs Con-O, FIG. 48), the “percentage of SA-β-gal+ cells” value is listed as “significantly decreased”. Further, in assay [2] (Con-O cells, FIG. 50), the “expression level of heterochromatin-modified H3K9me3” value is recorded as “restored its expression level to some extent”. In assay [2] (aged cells, FIG. 49), the “level of DNA damage marker γ-H2AX” value is on record as “significantly reduced”.
